{"source": "patent EP1179538A1", "about": "“PEPTIDES BLOCKING RESPONSE TO CHEMICAL SUBSTANCES OR THERMAL STIMULI OR NOCICEPTOR INFLAMMATION MEDIATORS AND COMPOSITIONS CONTAINING SAID PEPTIDES” (Universidad Miguel Hernandez de Elche, priority 1999, dated 2002)", "biological_target": "VR1 nocireceptor", "test": "Blockage of capsaicin-activated ionic current in X. laevis ovocites expressing the VR1 nocireceptor (two-microelectrode voltage clamp)", "type": "cell-based", "details": "VR1 expressed in X. laevis ovocites; activated by capsaicin 20 µM; transmembrane voltage -80 mV; read-out: peptide concentrations that inhibited half of the VR1 response (IC50)", "text": "This test comprises contacting X. laevi ovocites expressing the VR1 nocireceptor with an agonist (ligand) for said VR1 nocireceptor, for example, capsaicin, in the presence or absence of the compound to be tested, maintaining the transmembrane voltage constant at -80 mV, and detecting the inhibiting activity of said compound to be tested by measuring the agonist-activated ionic current in the presence and absence of the compound to be tested. The power and effectiveness of the inhibiting activity of the compound to be tested can be determined by obtaining the dosage-response curves. To achieve this, the magnitude of the capsaicin-activated ionic current blockage is examined in X. laevi ovocites that express the VR1 nocireceptor in the presence of the growing concentrations of the compound to be tested. The ratio of ionic current intensities in the presence and absence of the compound to be tested permits the obtention of dosage-response curves (19,20). These graphs can be adjusted to logarithmic functions to determine the maximum blockage (power) and the antagonist concentration produced by half the maximum blockage (IC50 effective).\nIn order to evaluate the biological activity of peptides obtained in Example 1.1 a test was developed to evaluate the power of said peptides blocking the agonist-activated ionic current in X. laevis ovocites that express the VR1 nocireceptor.\nThe heterologous expression of receptors in X. laevis ovocites can be carried out according to the procedure described by Ferrer-Montiel and Montal (19). […] The capsaicin agonist-activated ionic currents are recorded with the maintenance of the constant voltage technique with two microelectrodes (two-microelectrode voltage clamp) (19, 20). […] The inhibiting activity is detected by measuring the agonist -activated ionic current in the presence and absence of the peptides.\nThe power and effectiveness of the peptide inhibiting activity is determined by means of the obtention of dosage-response curves. […]", "note": "Peptide text beside a SMILES is read from it."}
{"molecule": "N=C(N)NCCC[C@H](NC(=O)[C@H](CCCNC(=N)N)NC(=O)[C@H](CCCNC(=N)N)NC(=O)[C@@H](N)CCCNC(=N)N)C(=O)N[C@@H](Cc1c[nH]c2ccccc12)C(=O)N[C@@H](Cc1c[nH]c2ccccc12)C(=O)O", "note": "[SEC. ID. N1: 1, Arg-Arg-Arg-Arg-Trp-Trp] (H-RRRRWW-OH)", "values": [{"measurement": "IC50", "value": "~100", "unit": "nM"}]}
{"molecule": "N=C(N)NCCC[C@H](NC(=O)[C@H](CCCNC(=N)N)NC(=O)[C@H](Cc1ccc(O)cc1)NC(=O)[C@H](Cc1ccc(O)cc1)NC(=O)[C@@H](N)CCCNC(=N)N)C(=O)N[C@@H](Cc1c[nH]c2ccccc12)C(=O)O", "note": "[SEC. ID. N1: 3, Arg-Tyr-Tyr-Arg-Arg-Trp] (H-RYYRRW-OH)", "values": [{"measurement": "IC50", "value": "~10000", "unit": "nM"}]}
{"molecule": "CC[C@H](C)[C@H](NC(=O)[C@H](Cc1c[nH]c2ccccc12)NC(=O)[C@H](Cc1c[nH]c2ccccc12)NC(=O)[C@H](CCCNC(=N)N)NC(=O)[C@@H](N)CCCNC(=N)N)C(=O)N[C@@H](CCCNC(=N)N)C(=O)O", "note": "[SEC. ID. N1: 2, Arg-Arg-Trp-Trp-Ile-Arg] (H-RRWWIR-OH)", "values": [{"measurement": "IC50", "value": "~2000", "unit": "nM"}]}
